Reference: ChEMBL document CHEMBL4507268 (2021)

Assays:
Conditions in all cases: Compound concentration 1.0 uM
[1] = biological target: Death-associated protein kinase 3 (Homo sapiens) (UniProt O43293)
[2] = biological target: T1, Tyrosine-protein kinase Mer (Homo sapiens) (UniProt Q12866)
T1 sequence (whole entry): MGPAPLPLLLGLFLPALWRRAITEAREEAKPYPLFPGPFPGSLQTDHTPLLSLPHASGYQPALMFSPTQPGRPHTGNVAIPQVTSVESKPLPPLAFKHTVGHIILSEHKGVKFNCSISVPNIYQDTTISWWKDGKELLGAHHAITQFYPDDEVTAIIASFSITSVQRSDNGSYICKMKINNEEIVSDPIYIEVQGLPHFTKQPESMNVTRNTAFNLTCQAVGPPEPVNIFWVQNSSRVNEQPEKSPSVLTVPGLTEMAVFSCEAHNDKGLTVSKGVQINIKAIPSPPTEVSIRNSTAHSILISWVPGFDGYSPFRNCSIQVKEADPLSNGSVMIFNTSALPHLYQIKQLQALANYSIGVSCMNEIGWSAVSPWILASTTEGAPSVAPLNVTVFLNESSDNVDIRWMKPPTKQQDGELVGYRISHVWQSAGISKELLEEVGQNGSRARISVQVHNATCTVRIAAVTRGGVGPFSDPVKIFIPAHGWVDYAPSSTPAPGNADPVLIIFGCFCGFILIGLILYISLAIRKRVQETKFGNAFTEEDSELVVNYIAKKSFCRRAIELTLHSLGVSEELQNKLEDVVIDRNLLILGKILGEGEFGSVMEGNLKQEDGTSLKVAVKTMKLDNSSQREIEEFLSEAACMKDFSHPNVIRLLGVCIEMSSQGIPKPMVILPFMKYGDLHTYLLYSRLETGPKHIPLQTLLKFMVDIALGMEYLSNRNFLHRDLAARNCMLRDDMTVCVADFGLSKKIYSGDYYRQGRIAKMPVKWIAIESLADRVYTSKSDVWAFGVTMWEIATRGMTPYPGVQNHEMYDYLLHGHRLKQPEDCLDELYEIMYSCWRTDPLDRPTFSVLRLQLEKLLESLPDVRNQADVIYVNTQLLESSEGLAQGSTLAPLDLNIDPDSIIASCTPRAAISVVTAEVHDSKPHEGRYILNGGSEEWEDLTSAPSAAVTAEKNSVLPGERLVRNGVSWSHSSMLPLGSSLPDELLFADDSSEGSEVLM

[3] = biological target: Dual specificity tyrosine-phosphorylation-regulated kinase 1A (Homo sapiens) (UniProt Q13627)
[4] = biological target: T2, Serine/threonine-protein kinase Nek1 (Homo sapiens) (UniProt Q96PY6)
T2 sequence (whole entry): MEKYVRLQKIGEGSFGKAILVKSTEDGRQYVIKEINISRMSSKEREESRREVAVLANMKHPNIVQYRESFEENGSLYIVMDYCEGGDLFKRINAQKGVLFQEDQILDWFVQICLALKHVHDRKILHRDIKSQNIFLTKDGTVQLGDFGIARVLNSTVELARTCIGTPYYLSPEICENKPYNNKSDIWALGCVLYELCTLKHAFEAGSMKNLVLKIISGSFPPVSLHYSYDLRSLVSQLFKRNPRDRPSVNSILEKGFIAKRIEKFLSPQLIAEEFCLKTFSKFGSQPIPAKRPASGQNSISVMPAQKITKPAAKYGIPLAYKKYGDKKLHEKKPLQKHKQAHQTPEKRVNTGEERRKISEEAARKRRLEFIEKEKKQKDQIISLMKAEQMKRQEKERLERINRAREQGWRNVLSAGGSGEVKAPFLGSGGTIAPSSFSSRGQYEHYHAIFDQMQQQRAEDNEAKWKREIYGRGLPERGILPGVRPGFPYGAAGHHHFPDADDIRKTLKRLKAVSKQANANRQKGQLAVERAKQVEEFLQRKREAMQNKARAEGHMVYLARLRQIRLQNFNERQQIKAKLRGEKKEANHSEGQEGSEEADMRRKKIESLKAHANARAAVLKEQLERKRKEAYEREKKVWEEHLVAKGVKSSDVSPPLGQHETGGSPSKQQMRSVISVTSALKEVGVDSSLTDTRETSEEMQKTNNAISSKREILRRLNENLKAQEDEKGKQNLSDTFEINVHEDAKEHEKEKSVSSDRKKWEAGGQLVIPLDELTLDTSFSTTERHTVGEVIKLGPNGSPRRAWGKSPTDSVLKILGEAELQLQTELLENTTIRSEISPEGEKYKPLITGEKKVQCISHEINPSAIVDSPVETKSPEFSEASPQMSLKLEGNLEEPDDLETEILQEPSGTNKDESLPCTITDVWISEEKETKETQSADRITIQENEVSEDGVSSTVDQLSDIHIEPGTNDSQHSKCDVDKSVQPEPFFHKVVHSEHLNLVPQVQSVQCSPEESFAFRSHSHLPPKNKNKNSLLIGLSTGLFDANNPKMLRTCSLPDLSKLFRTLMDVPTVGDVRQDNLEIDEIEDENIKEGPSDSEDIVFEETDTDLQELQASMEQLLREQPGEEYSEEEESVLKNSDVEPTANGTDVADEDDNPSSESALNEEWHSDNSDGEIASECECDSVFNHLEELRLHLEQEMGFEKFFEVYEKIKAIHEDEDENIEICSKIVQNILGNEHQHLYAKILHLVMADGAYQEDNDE

[5] = biological target: T3, Protein kinase C iota type (Homo sapiens) (UniProt P41743)
T3 sequence (whole entry): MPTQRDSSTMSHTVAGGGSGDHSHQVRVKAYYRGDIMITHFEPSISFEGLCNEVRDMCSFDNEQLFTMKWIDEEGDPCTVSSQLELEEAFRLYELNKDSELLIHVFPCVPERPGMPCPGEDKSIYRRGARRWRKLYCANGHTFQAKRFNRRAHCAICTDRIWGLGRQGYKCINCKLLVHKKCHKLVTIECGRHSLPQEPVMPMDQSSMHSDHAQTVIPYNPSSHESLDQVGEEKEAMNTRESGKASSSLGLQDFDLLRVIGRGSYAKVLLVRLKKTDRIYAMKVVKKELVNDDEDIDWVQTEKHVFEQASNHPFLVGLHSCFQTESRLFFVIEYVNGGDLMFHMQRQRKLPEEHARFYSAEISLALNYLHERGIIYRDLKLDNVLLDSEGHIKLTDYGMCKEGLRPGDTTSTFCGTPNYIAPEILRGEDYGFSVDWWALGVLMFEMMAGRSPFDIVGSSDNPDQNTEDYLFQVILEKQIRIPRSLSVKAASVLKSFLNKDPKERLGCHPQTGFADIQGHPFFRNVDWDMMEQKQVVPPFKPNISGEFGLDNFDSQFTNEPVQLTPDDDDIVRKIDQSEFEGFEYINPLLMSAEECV

[6] = biological target: Serine/threonine-protein kinase A-Raf (Homo sapiens) (UniProt P10398)

Measured: % residual kinase activity

Sequence of Death-associated protein kinase 3 (Homo sapiens) (O43293 whole entry, looked up): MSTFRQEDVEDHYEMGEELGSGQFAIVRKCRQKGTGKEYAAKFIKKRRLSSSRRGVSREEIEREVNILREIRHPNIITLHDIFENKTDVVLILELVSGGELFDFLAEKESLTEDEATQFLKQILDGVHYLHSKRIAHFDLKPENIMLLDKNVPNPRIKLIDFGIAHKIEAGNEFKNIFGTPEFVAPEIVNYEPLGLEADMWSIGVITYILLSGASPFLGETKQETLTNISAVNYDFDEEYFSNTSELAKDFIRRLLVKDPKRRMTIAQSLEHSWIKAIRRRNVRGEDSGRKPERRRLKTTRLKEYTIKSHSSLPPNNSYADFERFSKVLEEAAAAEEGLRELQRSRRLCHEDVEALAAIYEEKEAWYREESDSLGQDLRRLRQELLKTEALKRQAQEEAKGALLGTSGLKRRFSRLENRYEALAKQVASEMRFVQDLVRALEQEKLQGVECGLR
Sequence of Serine/threonine-protein kinase A-Raf (Homo sapiens) (P10398 whole entry): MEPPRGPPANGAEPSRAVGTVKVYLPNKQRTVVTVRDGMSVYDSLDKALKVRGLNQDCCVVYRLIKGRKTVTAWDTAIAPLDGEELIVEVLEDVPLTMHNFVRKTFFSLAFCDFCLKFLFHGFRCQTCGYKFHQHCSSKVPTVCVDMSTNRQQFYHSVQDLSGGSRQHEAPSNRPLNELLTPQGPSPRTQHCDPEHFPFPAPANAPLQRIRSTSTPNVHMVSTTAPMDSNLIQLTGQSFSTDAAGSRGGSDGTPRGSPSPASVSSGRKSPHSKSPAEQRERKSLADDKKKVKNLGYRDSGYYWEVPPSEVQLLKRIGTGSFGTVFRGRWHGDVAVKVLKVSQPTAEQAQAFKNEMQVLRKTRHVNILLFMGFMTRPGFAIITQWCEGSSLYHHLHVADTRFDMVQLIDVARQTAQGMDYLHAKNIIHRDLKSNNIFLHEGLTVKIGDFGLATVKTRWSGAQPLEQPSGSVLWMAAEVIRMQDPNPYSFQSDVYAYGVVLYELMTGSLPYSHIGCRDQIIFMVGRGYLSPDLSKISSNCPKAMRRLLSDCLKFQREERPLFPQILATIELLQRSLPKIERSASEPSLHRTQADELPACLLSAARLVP

CN1CCN(c2cnc3c(C4CCN(C(=O)c5ccc(OC(F)(F)F)cc5N)CC4)ncnc3c2)CC1 [BAY-885]
inactive: [1] 111% | [2] 91% | [3] 112% | [4] 98% | [5] 102% | [6] 96%
